Test results reported in ChEMBL document CHEMBL1158237, “Jineol, a Cytotoxic Alkaloid from the Centipede Scolopendra subspinipes” (1996).
Values after ≈ are worked out from the molar mass of the structure shown. Active and inactive are the calls of the source. The calls are words filed in the database; no cut-off is given here.

Assays:
HCT-15 = experiment: Cytotoxicity against human HCT15 cells by SRB assay; format: functional; conditions: read-out: ED50 (the source's name)
XF498 = experiment: Cytotoxicity against human XF498 cells by SRB assay; format: functional; conditions: read-out: ED50 (the source's name)
SK-MEL-2 = experiment: Cytotoxicity against human SK-MEL-2 cells by SRB assay; format: functional; conditions: read-out: ED50 (the source's name)
SK-OV-3 = experiment: Cytotoxicity against human SKOV3 cells by SRB assay; format: functional; conditions: read-out: ED50 (the source's name)
A549 = experiment: Cytotoxicity against human A549 cells by SRB assay; format: functional; conditions: read-out: ED50 (the source's name)
[1] = tested on: Trichophyton mentagrophytes; experiment: Antifungal activity against Trichophyton mentagrophytes by agar diffusion assay; format: functional, organism-based

| SMILES | EC50 (HCT-15) | EC50 (XF498) | EC50 (SK-MEL-2) | EC50 (SK-OV-3) | EC50 (A549) | Activity [1] |
| --- | --- | --- | --- | --- | --- | --- |
| COc1cnc2c(OC)cccc2c1 [JINEOL METHYL ETHER] | 42 µg/mL (≈ 222 µM) | 29 µg/mL (≈ 153 µM) | 21 µg/mL (≈ 111 µM) | 32 µg/mL (≈ 169 µM) | 38 µg/mL (≈ 201 µM) | – |
| COc1cccc2c1C(=O)c1c(O)c3c(c(O)c1C2=O)C[C@@](O)(C(=O)CO)C[C@@H]3O[C@H]1C[C@H](N)[C@H](O)[C@H](C)O1 [DOXORUBICIN] | 1.8 µg/mL (≈ 3.31 µM) | 0.1 µg/mL (≈ 0.184 µM) | 0.05 µg/mL (≈ 0.092 µM) | 0.11 µg/mL (≈ 0.202 µM) | 0.05 µg/mL (≈ 0.092 µM) | – |
| Oc1cnc2c(O)cccc2c1 [JINEOL] | 1.9 µg/mL (≈ 11.8 µM) | 10 µg/mL (≈ 62.1 µM) | 5.6 µg/mL (≈ 34.7 µM) | 4.5 µg/mL (≈ 27.9 µM) | 5.8 µg/mL (≈ 36 µM) | Active |
| CC(=O)Oc1cnc2c(OC(C)=O)cccc2c1 [JINEOL ACETATE] | 8 µg/mL | 12 µg/mL | 11 µg/mL | 14 µg/mL | 8 µg/mL | – |
